Patent US20040131701A1, “Method to treat infectious diseases and/or to enhance antimicrobial efficacy of drugs” (Virocell Inc., priority 2000, published 2004)

Assays:
[1] = test system: T-tropic strain HIV-1NL4-3; assay: Replication of HIV-1 in Sup-T1 cells (p24 in culture supernatants); assay type: cell-based; conditions: 10 days, all three tested concentrations
Excerpt: (§1) Fully infectious viral entities were generated by calcium phosphate transfection of 293T with pNL4-3 vector (T-tropic virions) as described below. Recombinant luciferase-encoding virus particles pseudotyped with the appropriate Env proteins have been used in our series of investigations. Such a system provides a highly sensitive and reproducible assay to monitor single-cycle viral infection events. This test is based on the molecular construct pNL4-3-Luc-E-R+, a vector that carries the gene for firefly luciferase inserted into the nef gene of the pNL4-3 provirus and contains also a frameshift at the 5′ end of env (nt 5950) that prevents expression of the envelope glycoproteins. […]
Sup-T1 cells were seeded at a density of 10^5 cells per well (100 μl) in 96-well flat-bottom, plates. […] Cells were incubated for 10 days and kinetics of viral infection was assessed by measuring in cell-free culture supernatants the major core viral p24 protein with the use of a commercial enzymatic assay (Organon Teknika). Putative toxicity of bpV molecules was assessed by adding the tetrazolium salt MTT to Sup-T1 cells that were cultured for 10 days under the constant pressure of the indicated concentrations of bpV[pic] and bpV[phen] molecules.

[2] = test system: T-tropic recombinant luciferase-encoding HIV-1 particles; assay: Infection of PM1 cells with luciferase reporter virus, T-tropic envelope; assay type: cell-based; conditions: 5 min pretreatment, 72 h
Excerpt: as §1, with “glycoproteins. Progeny viruses were generated by cotransfecting 293T cells with pNL4-3-Luc-E-R+ and a plasmid DNA encoding for the appropriate envelope glycoproteins (T or macrophage-tropic). Briefly, a typical transfection experiment was performed as follow.” for “glycoproteins.”
(§2) In brief, 100 μl of cell-free supernatant were discarded from each well and 25 μl of cell culture lysis buffer 5×(125 mM Tris phosphate [pH 7.8], 10 mM DTT, 5% Triton X-100, and 50% glycerol) were added to the wells before incubation at room temperature for 30 min. […] Luciferase activity was monitored using a microplate luminometer (MLX; Dynex Technologies, Chantilly, Va.). […]

[3] = test system: macrophage-tropic recombinant luciferase-encoding HIV-1 particles; assay: Infection of PM1 cells with luciferase reporter virus, macrophage-tropic envelope; assay type: cell-based; conditions: 5 min pretreatment, 72 h
Excerpt: as §1, with “glycoproteins. Progeny viruses were generated by cotransfecting 293T cells with pNL4-3-Luc-E-R+ and a plasmid DNA encoding for the appropriate envelope glycoproteins (T or macrophage-tropic). Briefly, a typical transfection experiment was performed as follow.” for “glycoproteins.”
as §2

[4] = test system: recombinant luciferase-encoding virions (NL4-3 backbone) pseudotyped with macrophage-tropic ADA envelope; assay: Infection of primary human MDM with luciferase-encoding virions, ADA envelope; assay type: cell-based, HIV-1; conditions: 48 h; for anti-HIV-1 efficacy (luciferase activity): 10 μM bpV[pic] or 5 μM bpV[phen], pretreatment 5 to 120 min
Excerpt: (§3) Fully infectious viral entities were generated by calcium phosphate transfection of 293T with pNL4-3 vector (T-tropic virions) as described below. Recombinant luciferase-encoding virus particles pseudotyped with the appropriate Env proteins have been used in our series of investigations. […] This test is based on the molecular construct pNL4-3-Luc-E-R+, a vector that carries the gene for firefly luciferase inserted into the nef gene of the pNL4-3 provirus and contains also a frameshift at the 5′ end of env (nt 5950) that prevents expression of the envelope glycoproteins. Progeny viruses were generated by cotransfecting 293T cells with pNL4-3-Luc-E-R+ and a plasmid DNA encoding for the appropriate envelope glycoproteins (T or macrophage-tropic). Briefly, a typical transfection experiment was performed as follow. In brief, 293T cells were plated 24 h before transfection at a concentration of 5×10^5 cells per 3 ml of DMEM into each well of 6-well plates. All solutions were brought to room temperature before use. Immediately before transfection, DNA was added to 25 μl of 2.5M CaCl2 and the volume was completed to 250 μl with distilled water. This solution was then added drop by drop to 250 μl of 2×HBS solution (280 mM NaCl, 50 mM HEPES, 1.5 mM Na2HPO4, pH 7.05) and the resulting mixture was stored at room temperature for 5 min. This DNA-HBS mixture was finally added drop by drop to plated 293T cells before incubation at 37° C. under a 5% CO2atmosphere. At 16 h after transfection, cells were washed twice with 3 ml of PBS and were incubated for an additional 24 h with 3 ml of DMEM supplemented with 10% FBS. Virion-containing supernatants were filtered through a 0.45-μm cellulose acetate membrane (Millipore, Mass.), aliquoted in 200 μl fractions, and were finally frozen at −85° C. until needed. Virus stocks were normalized for virion content using a commercial assay for the viral major core protein p24 (Organon Teknika, Durham, N.C.).
(§4) In brief, 100 μl of cell-free supernatant were discarded from each well and 25 μl of cell culture lysis buffer 5×(125 mM Tris phosphate [pH 7.8], 10 mM DTT, 5% Triton X-100, and 50% glycerol) were added to the wells before incubation at room temperature for 30 min. An aliquot of cell lysate (20 μl) was mixed with 100 μl luciferase assay buffer (20 mM tricine, 1.07 mM (MgCO3)4. Mg(OH)2.5H2O, 2.67 mM MgSO4, 0.1 mM EDTA, 270 μM coenzyme A, 470 μM luciferin, 530 μM ATP, and 33.3 mM DTT). Luciferase activity was monitored using a microplate luminometer (MLX; Dynex Technologies, Chantilly, Va.).

primary human MDM = assay: MTT toxicity in primary human MDM; assay type: cell-based; conditions: 48 h
Excerpt: Target cells used in the present invention include human CD4-expressing T lymphoid Sup-T1, PM1, and Jurkat cells. Moreover, primary human monocyte-derived macrophages (MDM) and peripheral blood mononuclear cells (PBMC′) were also used in the current work, MDM were obtained using a standard technique. In brief, the mononuclear cell fraction was isolated by Ficoll-Hypaque centrifugation. Peripheral blood mononuclear cells were suspended in seeding medium (RPMI 1640+20% fetal calf serum+10% human serum type AB) in tissue culture 48-well plates (3×10^6 cells/ml and 500 μl per well). Five days after the initiation of the cultures, nonadherent cells were removed by rinsing the cultures three times with phosphate buffered saline. Next, such adherent cells were maintained in RPMI 1640 medium supplemented with 20% fetal calf serum.
Putative toxicity of bpV[pic] and bpV[phen] molecules was next assessed by adding the tetrazolium salt MTT to primary human MDM that were cultured for 48 h under the constant pressure of the indicated concentrations of bpV compounds.

[5] = test system: recombinant luciferase-encoding virions (NL4-3 backbone) pseudotyped with T-tropic HXB-2D envelope; assay: Infection of Jurkat cells with luciferase-encoding virions, HXB-2D envelope; assay type: cell-based, HIV-1; conditions: 72 h
Excerpt: as §3, §4
We attempted to define any putative interaction (additive, synergistic or antagonistic) between bpV compounds and currently approved anti-HIV-1 agents (AZT/Zidovudine, 3TC/Epivir/Lamivudine). […]

Sup-T1 cells = assay type: cell-based, human
Protocol: Sup-T1 cells were seeded at a density of 10^5 cells per well (100 μl) in 96-well flat-bottom, plates. Cells were either left untreated (control) or were pretreated for 5 min at 37° C. with the two different bpV molecules (bpV [pic] and bpV[phen]) at the indicated concentrations in a final volume of 200 μl. Next, both untreated and bpV-treated Sup-T1 cells were inoculated with the fully infectious T-tropic strain HIV-1NL4-3 (10 ng of p24). Culture medium was replaced twice a week and was supplemented with the appropriate final concentration of bpV molecules. Cells were incubated for 10 days and kinetics of viral infection was assessed by measuring in cell-free culture supernatants the major core viral p24 protein with the use of a commercial enzymatic assay (Organon Teknika). Putative toxicity of bpV molecules was assessed by adding the tetrazolium salt MTT to Sup-T1 cells that were cultured for 10 days under the constant pressure of the indicated concentrations of bpV[pic] and bpV[phen] molecules.

[6] = test system: Human peripheral blood mononuclear cells; assay: HPLC analysis of phosphorylated forms of 3TC in PBMC's; assay type: cell-based; conditions: 10 μM bpV[pic], 3TC at 5, 10 and 20 μM
Protocol: Analysis of the cellular content in 3TC and its phosphorylated metabolites was performed by HPLC as follows. In preparations for HPLC analysis, 1 ml of a mixture of acetonitrile/water (5/95, vol/vol) and 0.5 ml water were added to each sample. The samples were vortexed and centrifuged at 1000×g for 10 min at room temperature to remove the precipitated material. The supernatants were collected and used without further treatment for HPLC analysis. Two (2) ml of each sample (total volume of ˜2.5 ml) were injected onto a Beckman Ultrasphere ODS column (4.6 mm×150 mm) protected with a Guard-Pak C18 (Waters Millipore) pre-column. 3TC and its metabolites were eluted using a linear gradient from 100% solvent A to 100% solvent B in 25 minutes at a flow rate of 1.2 ml/minute (Solvent A: 5% acetonitrile, 70% water, 25% buffer [40 mM H3PO4, 8 mM tetrabutylammonium hydroxide, adjusted to pH 6.75 with concentrated ammonium hydroxide]; Solvent B: 40% acetonitrile, 35% water, 25% buffer). The elution of metabolites was monitored by counting radioactivity using a Flow Scintillation Analyser 500TR Series (Packard); the HPLC column effluent (1.2 ml/min) was mixed with a liquid scintillation cocktail (3 ml/min) (Ultima Flow M, Packard).
Human peripheral blood mononuclear cells (PBMC's) were obtained from healthy donors subjected to lymphopheresis for 60 min. The yield of PBMC's ranged from 1.8 to 2.6 billion cells per donor. Twenty-five (25) ml fractions of the cell suspensions (obtained by lymphopheresis) were layered on cushions (15 ml) of Lymphocyte Separation Medium (Wisent) in 50 ml tubes, which were then centrifuged at room temperature at 750×g during 25 min. The purified PBMC's were collected (on top of the Ficoll cushions) and washed 3 times in HBSS (without calcium and magnesium) (500×g, 7 min. at room temperature). The cells were resuspended in RPMI containing 5% FBS at the cell concentration of 25×10^6 per ml. Incubations were carried out using 1 ml of PBMC's suspension per tube. […]

Row | Molecule | HIV-1 production (p24) [1] | infection (luciferase activity) [2] | infection (luciferase activity) [3] | anti-HIV-1 efficacy (luciferase activity) ([4]; MDM) | toxicity (MTT) (primary human MDM; 10 and 20 μM) | virus infection (luciferase activity) ([5]; antiviral agent alone 0.05 μM) | toxicity (MTT) (Sup-T1 cells) | HIV-1 infection (luciferase activity) ([4]; MDM, 10 μM alone, 15 min pretreatment) | antiviral effect in combination with 3TC ([4]; MDM, 10 μM bpV[pic] with 0.035 μM 3TC, 15 min pretreatment) | anti-HIV-1 effect in combination with 3TC ([4]; MDM, 1, 5 and 10 μM bpV[pic] with 0.07 μM 3TC, 5 min pretreatment) | toxicity (MTT) (primary human MDM; 20 μM) | HIV-1 infection (luciferase activity) ([5]; bpV compound alone (2.5, 5, 10 μM)) | antiviral effect in combination with 3TC ([5]; combined with 0.05 μM 3TC) | antiviral effect in combination with AZT ([5]; combined with 0.05 μM AZT) | formation of 3TC diphosphate [6] | formation of 3TC triphosphate [6] | ratio of 3TC triphosphate over 3TC diphosphate [6]
1 | O.O.O.OO.OO.[K+].[OH-].[V].c1cnc2c(c1)ccc1cccnc12 [bpV[phen], K[VO(O2)2phen]0.3H2O] | dramatic decrease of HIV-1 production | dose-dependent inhibition of infection | dose-dependent inhibition of infection | maintained over several pretreatment periods | detectable toxic effect | – | – | – | – | – | – | – | – | – | – | – | –
2 | Cc1cn([C@H]2C[C@H](N=[N+]=[N-])[C@@H](CO)O2)c(=O)[nH]c1=O [AZT, Zidovudine, reference compound] | – | – | – | – | – | decreased | – | – | – | – | – | – | – | – | – | – | –
3 | K2[VO(O2)2pic].H2O [bpV[pic]] | dramatic decrease of HIV-1 production | dose-dependent inhibition of infection | dose-dependent inhibition of infection | maintained over several pretreatment periods | – | – | no toxic effect | inhibits HIV-1 infection | additive antiviral effect | dose-dependent additive anti-HIV-1 effect | toxic | inhibits HIV-1 infection | greater antiviral effect | greater antiviral effect | decreased | increased | consistently increases
